Calls of active or inactive are those of the source. The rule behind the calls is not given here.

The subject of this series is CCRIS mutagenicity, Ames/micronucleus/aberration tests. As to the kind of experiment: CCRIS mutagenicity studies.
The mark [1] stands for this setting: Test System: AMES SALMONELLA TYPHIMURIUM, Strain/Indicator: TA100, Metabolic Activation: S-9, Method: STANDARD PLATE.

For `Oc1ccc(Cl)cc1Cl`, the mutagenic call was “inactive; negative” (End Point: IN VITRO CHROMOSOMAL ABERRATIONS, Test System: CHO CELLS, Metabolic Activation: RAT, LIVER, S-9, AROCLOR 1254); “active; positive” (End Point: IN VITRO CHROMOSOMAL ABERRATIONS, Test System: CHO CELLS, Metabolic Activation: RAT, LIVER, S-9, PHENOBARBITAL AND BETA-NAPHTHOFLAVONE); “inactive; negative; authors reported the results as equivocal” (End Point: IN VITRO CHROMOSOMAL ABERRATIONS, Test System: TK6 HUMAN LYMPHOBLASTS, Metabolic Activation: NONE); “inactive; negative” (Test System: AMES SALMONELLA TYPHIMURIUM, Strain/Indicator: TA98, Metabolic Activation: HAMSTER, LIVER, S-9, AROCLOR 1254, Method: PREINCUBATION); “inactive; negative” (Test System: AMES SALMONELLA TYPHIMURIUM, Strain/Indicator: TA98, Metabolic Activation: NONE, Method: PREINCUBATION); “inactive; negative” (Test System: AMES SALMONELLA TYPHIMURIUM, Strain/Indicator: TA98, Metabolic Activation: RAT, LIVER, S-9, AROCLOR 1254, Method: PREINCUBATION). Further, the mutagenic call (Test System: AMES SALMONELLA TYPHIMURIUM, Strain/Indicator: TA98, Metabolic Activation: S-9, Method: STANDARD PLATE) was “inactive; negative”; the mutagenic call (Test System: AMES SALMONELLA TYPHIMURIUM, Strain/Indicator: TA100, Metabolic Activation: HAMSTER, LIVER, S-9, AROCLOR 1254, Method: PREINCUBATION) was “inactive; negative”; the mutagenic call (Test System: AMES SALMONELLA TYPHIMURIUM, Strain/Indicator: TA100, Metabolic Activation: NONE, Method: PREINCUBATION) was “inactive; negative”; the mutagenic call (Test System: AMES SALMONELLA TYPHIMURIUM, Strain/Indicator: TA100, Metabolic Activation: RAT, LIVER, S-9, AROCLOR 1254, Method: PREINCUBATION) was “inactive; negative”; the mutagenic call under setting [1] was “inactive; negative”; the mutagenic call (Test System: AMES SALMONELLA TYPHIMURIUM, Strain/Indicator: TA1535, Metabolic Activation: NONE, Method: PREINCUBATION) was “inactive; negative”. The mutagenic call (Test System: AMES SALMONELLA TYPHIMURIUM, Strain/Indicator: TA1535, Metabolic Activation: RAT, LIVER, S-9, AROCLOR 1254, Method: PREINCUBATION) is “inactive; negative”; the mutagenic call (Test System: AMES SALMONELLA TYPHIMURIUM, Strain/Indicator: TA1537, Metabolic Activation: HAMSTER, LIVER, S-9, AROCLOR 1254, Method: PREINCUBATION) was “inactive; negative”; the mutagenic call (Test System: AMES SALMONELLA TYPHIMURIUM, Strain/Indicator: TA1537, Metabolic Activation: NONE, Method: PREINCUBATION) was “inactive; negative”; the mutagenic call (Test System: AMES SALMONELLA TYPHIMURIUM, Strain/Indicator: TA1537, Metabolic Activation: RAT, LIVER, S-9, AROCLOR 1254, Method: PREINCUBATION) is “inactive; negative”; the mutagenic call (Test System: AMES SALMONELLA TYPHIMURIUM, Strain/Indicator: YG1021, Metabolic Activation: S-9, Method: STANDARD PLATE) was “inactive; negative”; the mutagenic call (Test System: AMES SALMONELLA TYPHIMURIUM, Strain/Indicator: YG1024, Metabolic Activation: S-9, Method: STANDARD PLATE) is “inactive; negative”. Also, the mutagenic call (Test System: AMES SALMONELLA TYPHIMURIUM, Strain/Indicator: YG1026, Metabolic Activation: S-9, Method: STANDARD PLATE) is “inactive; negative”; the mutagenic call (Test System: AMES SALMONELLA TYPHIMURIUM, Strain/Indicator: YG1029, Metabolic Activation: S-9, Method: STANDARD PLATE) was “inactive; negative”; the mutagenic call (Test System: CHINESE HAMSTER V-79, Strain/Indicator: V-79/6-THIOGUANINE, Metabolic Activation: NONE, Method: STANDARD PLATE) was “inactive; negative”; the mutagenic call (Test System: MOUSE LYMPHOMA, Strain/Indicator: L5178Y (TK+/TK-), Metabolic Activation: NONE, Method: SUSPENSION/PLATE) was “active; positive”.
Consider `CCCCOCC(=O)O`, for which the mutagenic call was “inactive; negative” (Test System: AMES SALMONELLA TYPHIMURIUM, Strain/Indicator: TA97A, Metabolic Activation: NONE, Method: STANDARD PLATE); “inactive; negative” (Test System: AMES SALMONELLA TYPHIMURIUM, Strain/Indicator: TA97A, Metabolic Activation: RAT, LIVER, S-9, AROCLOR 1254, Method: STANDARD PLATE); “inactive; negative” (Test System: AMES SALMONELLA TYPHIMURIUM, Strain/Indicator: TA98, Metabolic Activation: NONE, Method: STANDARD PLATE); “inactive; negative” (Test System: AMES SALMONELLA TYPHIMURIUM, Strain/Indicator: TA98, Metabolic Activation: RAT, LIVER, S-9, AROCLOR 1254, Method: STANDARD PLATE); “inactive; negative” (Test System: AMES SALMONELLA TYPHIMURIUM, Strain/Indicator: TA100, Metabolic Activation: NONE, Method: STANDARD PLATE); “inactive; negative” (Test System: AMES SALMONELLA TYPHIMURIUM, Strain/Indicator: TA100, Metabolic Activation: RAT, LIVER, S-9, AROCLOR 1254, Method: STANDARD PLATE). Further, the mutagenic call by setting is: (Test System: AMES SALMONELLA TYPHIMURIUM, Strain/Indicator: TA102, Metabolic Activation: NONE, Method: STANDARD PLATE) “inactive; negative”; (Test System: AMES SALMONELLA TYPHIMURIUM, Strain/Indicator: TA102, Metabolic Activation: RAT, LIVER, S-9, AROCLOR 1254, Method: STANDARD PLATE) “inactive; negative”.
Consider `CC(C)c1ccccc1`, for which the mutagenic call runs as follows: (End Point: In vivo micronucleus, Test System: Polychromatic erythrocytes in bone marrow, Species: Rat, Strain/Sex: F344/N / Male, Route: Intraperitoneal) “active; positive (both trials)”; (End Point: In vivo micronucleus, Test System: Polychromatic erythrocytes in peripheral blood, Species: Mouse, Strain/Sex: B6C3F1/ Female, Route: Inhalation) “inactive; negative”; (End Point: In vivo micronucleus, Test System: Polychromatic erythrocytes in peripheral blood, Species: Mouse, Strain/Sex: B6C3F1/ Male, Route: Inhalation) “inactive; negative”; (Test System: Ames Salmonella typhimurium, Strain/Indicator: TA97, Metabolic Activation: Hamster, Liver, S-9, Aroclor 1254 (10%), Method: Preincubation) “inactive; negative”; (Test System: Ames Salmonella typhimurium, Strain/Indicator: TA97, Metabolic Activation: Hamster, Liver, S-9, Aroclor 1254 (30%), Method: Preincubation) “inactive; negative”; (Test System: Ames Salmonella typhimurium, Strain/Indicator: TA97, Metabolic Activation: None, Method: Preincubation) “inactive; negative”. Also, the mutagenic call reads like this: (Test System: Ames Salmonella typhimurium, Strain/Indicator: TA97, Metabolic Activation: Rat, Liver, S-9, Aroclor 1254 (10%), Method: Preincubation) “inactive; negative”; (Test System: Ames Salmonella typhimurium, Strain/Indicator: TA97, Metabolic Activation: Rat, Liver, S-9, Aroclor 1254 (30%), Method: Preincubation) “inactive; negative”; (Test System: Ames Salmonella typhimurium, Strain/Indicator: TA98, Metabolic Activation: Hamster, Liver, S-9, Aroclor 1254 (10%), Method: Preincubation) “inactive; negative”; (Test System: Ames Salmonella typhimurium, Strain/Indicator: TA98, Metabolic Activation: Hamster, Liver, S-9, Aroclor 1254 (30%), Method: Preincubation) “inactive; negative”; (Test System: Ames Salmonella typhimurium, Strain/Indicator: TA98, Metabolic Activation: None, Method: Preincubation) “inactive; negative”; (Test System: Ames Salmonella typhimurium, Strain/Indicator: TA98, Metabolic Activation: Rat, Liver, S-9, Aroclor 1254 (10%), Method: Preincubation) “inactive; negative”. Also, the mutagenic call by setting is: (Test System: Ames Salmonella typhimurium, Strain/Indicator: TA98, Metabolic Activation: Rat, Liver, S-9, Aroclor 1254 (30%), Method: Preincubation) “inactive; negative”; (Test System: Ames Salmonella typhimurium, Strain/Indicator: TA100, Metabolic Activation: Hamster, Liver, S-9, Aroclor 1254 (10%), Method: Preincubation) “inactive; negative”; (Test System: Ames Salmonella typhimurium, Strain/Indicator: TA100, Metabolic Activation: Hamster, Liver, S-9, Aroclor 1254 (30%), Method: Preincubation) “inactive; negative”; (Test System: Ames Salmonella typhimurium, Strain/Indicator: TA100, Metabolic Activation: None, Method: Preincubation) “inactive; negative”; (Test System: Ames Salmonella typhimurium, Strain/Indicator: TA100, Metabolic Activation: Rat, Liver, S-9, Aroclor 1254 (10%), Method: Preincubation) “inactive; negative”; (Test System: Ames Salmonella typhimurium, Strain/Indicator: TA100, Metabolic Activation: Rat, Liver, S-9, Aroclor 1254 (30%), Method: Preincubation) “inactive; negative”. In addition, the mutagenic call runs as follows: (Test System: Ames Salmonella typhimurium, Strain/Indicator: TA1535, Metabolic Activation: Hamster, Liver, S-9, Aroclor 1254 (10%), Method: Preincubation) “inactive; negative”; (Test System: Ames Salmonella typhimurium, Strain/Indicator: TA1535, Metabolic Activation: Hamster, Liver, S-9, Aroclor 1254 (30%), Method: Preincubation) “inactive; negative”; (Test System: Ames Salmonella typhimurium, Strain/Indicator: TA1535, Metabolic Activation: None, Method: Preincubation) “inactive; negative”; (Test System: Ames Salmonella typhimurium, Strain/Indicator: TA1535, Metabolic Activation: Rat, Liver, S-9, Aroclor 1254 (10%), Method: Preincubation) “inactive; negative”; (Test System: Ames Salmonella typhimurium, Strain/Indicator: TA1535, Metabolic Activation: Rat, Liver, S-9, Aroclor 1254 (30%), Method: Preincubation) “inactive; negative”.
Take `O=C1CC[C@@]2(O)[C@H]3Cc4ccc(O)c5c4[C@@]2(CCN3CC2CC2)[C@H]1O5`: the mutagenic call (Test System: UDS HUMAN FIBROBLASTS, Strain/Indicator: THY INCORP (NON-S-PHASE), Metabolic Activation: NONE, Method: AUTORADIOGRAPHY) is “active; positive”.
`O=C(CCCl)N=c1sn(C(=O)CCCl)c2ccccc12`: the mutagenic call under setting [1] is “inactive; negative”.

The record behind these values is PubChem BioAssay AID1259407 (Chemical Carcinogenesis Research Information System (CCRIS), 2018).
